Laboratory results from patent US7645720B2, “Extreme environment surfactant compositions comprising hydrolysis resistant organomodified disiloxane surfactants” (Momentive Performance Materials Inc., priority 2005, dated 2010).
One block for each compound: values may come before it.

Assays:
Type in all cases: physicochemical
[1] = Surface tension (Kruss surface tensiometer); conditions: 0.1 wt % in 0.005M NaCl water
Protocol: Surface tension was measured using a Kruss surface tensiometer, with a sand blasted platinum blade as the sensor. Solutions of the various components were prepared at 0.1 wt % in 0.005M NaCl water (Deionized), as an equilibrium aid.

[2] = Spreading of 10 μL droplet on polyacetate film; conditions: 30 seconds
Protocol: (§1) Spreading was determined by applying a 10 μL droplet, of surfactant solution to polyacetate film (USI, “Crystal Clear Write on Film”) and measuring the spread diameter (mm) after 30 seconds, at a relative humidity between 50 and 70% (at 22 to 25° C.). The solution was applied with an automatic pipette to provide droplets of reproducible volume. Deionized water that was further purified with a Millipore filtration system was used to prepare the surfactant solutions.

[3] = Hydrolytic stability by HPLC
[4] = Hydrolytic stability by HPLC; conditions: 0.5 wt %
Protocol: Hydrolytic stability was determined for representative compositions of the present invention using HPLC. Solutions of the various compositions were prepared at 0.5 wt % over a pH range from pH 4 to pH 12, and monitored by HPLC for decomposition as a function of time.
• Detector: ELSD/LTA (Evaporative Light Scattering with Low Temperature Adapter • Conditions: 30° C., 1.95 SLPM N2 • Column: Phenomenex LUNA C18 end cap, 5 micron, 75×4.6 mm • Flow Rate: 1.0 mL/min. • Inj. Volume: 10 microliters • Sample: 0.050 g/mL in methanol

[5] = Spreading properties vs time at set pH (resistance to hydrolysis); conditions: 0.4 wt %
Protocol: as §1
Therefore solutions of the organomodified disiloxane surfactants of the present invention, as well as comparative surfactants were prepared at desired use levels and pH. Spreading was determined as a function of time to illustrate resistance to hydrolysis. […]
Solutions (0.4 wt %) of the surfactants were prepared at pH 4 and pH 5 and spreading properties were observed over time. The test conditions are outlined in Example 8.

- Surface Tension [1]: 24.1 mN/m
- Spread Diameter ([2]; 0.1%): 6 mm
- Spread Diameter ([2]; 0.2%): 8 mm
- Spread Diameter ([2]; 0.4%): 9 mm
Structure (SMILES): C[Si](C)(C)O[Si](C)(C)CCCOCCOCCOCCOCCOCCOCCOCCOCCOCCOCCOCCO [Comparative C, reference compound]

- Stability: % Siloxane Surfactant Remaining ([3]; pH 4, 48 h, 0.5 wt %): 82%
- Stability: % Siloxane Surfactant Remaining ([3]; pH 4, 9 days, 0.5 wt %): 44%
- Stability: % Siloxane Surfactant Remaining ([3]; pH 7, 9 days, 0.5 wt %): 99%
- Stability: % Siloxane Surfactant Remaining ([3]; pH 9, 9 days, 0.5 wt %): 99%
- Stability: % Siloxane Surfactant Remaining ([3]; pH 10, 48 h, 0.5 wt %): >95%
- Stability: % Siloxane Surfactant Remaining ([3]; pH 10, 9 days, 0.5 wt %): 99%
- Stability: % Siloxane Surfactant Remaining ([4]; pH 5, 48 h): >95%
- Stability: % Siloxane Surfactant Remaining ([4]; pH 5, 9 days): 99%
- Stability: % Siloxane Surfactant Remaining ([4]; pH 7, 48 h): >95%
- Stability: % Siloxane Surfactant Remaining ([4]; pH 9, 48 h): >95%
- Surface Tension [1]: 32.7 mN/m
- Spread Diameter ([2]; 0.1%): 7 mm
- Spread Diameter ([2]; 0.4%): 6 mm
Structure (SMILES): C[Si](C)(CCCOCCOCCOCCOCCOCCOCCOCCOCCOCCOCCOCCO)O[Si](C)(C)C1CC2CC1C1C=CCC21 (stereo not shown) [Comparative D, reference compound]

- Surface Tension [1]: 31.8 mN/m
- Spread Diameter ([2]; 0.4%): 10 mm
Structure (SMILES): CC(C)(C)CC(C)(C)c1ccc(OCCOCCOCCOCCOCCOCCOCCOCCOCCOCCO)cc1 [OPE, Octylphenolethoxylate]

- Surface Tension ([1]; listed as 4): 24.1 mN/m
- Spread Diameter ([2]; 0.1%, listed as 4): 8 mm
- Spread Diameter ([2]; 0.2%, listed as 4): 9 mm
- Spread Diameter ([2]; 0.4%, listed as 4): 10 mm
Structure (SMILES): CC(C)C[Si](C)(C)O[Si](C)(C)CCCOCCOCCOCCOCCOCCOCCOCCOCCOCCOCCOCCO [Product 4]

- Surface Tension ([1]; listed as 7): 23.9 mN/m
- Spread Diameter ([2]; 0.1%, listed as 7): 14 mm
- Spread Diameter ([2]; 0.2%, listed as 7): 15 mm
- Spread Diameter ([2]; 0.4%, listed as 7): 25 mm
Structure (SMILES): CC(C)C[Si](C)(C)O[Si](C)(C)CCCOCCOCCOCCOCCOCCOCCOCCOCCOCCOCCOCCO [Product 7]

- Stability: % Siloxane Surfactant Remaining ([3]; pH 4, 3 wk, Stock Solution 2.5 wt %): 79%
- Stability: % Siloxane Surfactant Remaining ([3]; pH 4, 6 wk, Stock Solution 2.5 wt %): 56%
- Stability: % Siloxane Surfactant Remaining ([3]; pH 4, 11 wk, Stock Solution 2.5 wt %): 10%
- Stability: % Siloxane Surfactant Remaining ([3]; pH 4, 96 h, Stock Solution 2.5 wt %): 100%
- Stability: % Siloxane Surfactant Remaining ([3]; pH 5, 3 wk, Stock Solution 2.5 wt %): 100%
- Stability: % Siloxane Surfactant Remaining ([3]; pH 5, 6 wk, Stock Solution 2.5 wt %): 100%
- Stability: % Siloxane Surfactant Remaining ([3]; pH 5, 11 wk, Stock Solution 2.5 wt %): 100%
- Stability: % Siloxane Surfactant Remaining ([3]; pH 5, 96 h, Stock Solution 2.5 wt %): 100%
- Stability: % Siloxane Surfactant Remaining ([3]; pH 7, 3 wk, Stock Solution 2.5 wt %): 100%
- Stability: % Siloxane Surfactant Remaining ([3]; pH 7, 6 wk, Stock Solution 2.5 wt %): 100%
- Stability: % Siloxane Surfactant Remaining ([3]; pH 7, 11 wk, Stock Solution 2.5 wt %): 100%
- Stability: % Siloxane Surfactant Remaining ([3]; pH 7, 96 h, Stock Solution 2.5 wt %): 100%
- Stability: % Siloxane Surfactant Remaining ([3]; pH 9, 3 wk, Stock Solution 2.5 wt %): 100%
- Stability: % Siloxane Surfactant Remaining ([3]; pH 9, 6 wk, Stock Solution 2.5 wt %): 100%
- Stability: % Siloxane Surfactant Remaining ([3]; pH 9, 11 wk, Stock Solution 2.5 wt %): 100%
- Stability: % Siloxane Surfactant Remaining ([3]; pH 9, 96 h, Stock Solution 2.5 wt %): 100%
- Stability: % Siloxane Surfactant Remaining ([3]; pH 10, 3 wk, Stock Solution 2.5 wt %): 100%
- Stability: % Siloxane Surfactant Remaining ([3]; pH 10, 6 wk, Stock Solution 2.5 wt %): 100%
- Stability: % Siloxane Surfactant Remaining ([3]; pH 10, 11 wk, Stock Solution 2.5 wt %): 100%
- Stability: % Siloxane Surfactant Remaining ([3]; pH 10, 96 h, Stock Solution 2.5 wt %): 100%
- Spreading Diameter ([5]; pH 4, 0 h): 16 mm
- Spreading Diameter ([5]; pH 4, 1 mo): 10 mm
- Spreading Diameter ([5]; pH 4, 1 wk): 8 mm
- Spreading Diameter ([5]; pH 4, 2 wk): 8 mm
- Spreading Diameter ([5]; pH 4, 3 wk): 12 mm
- Spreading Diameter ([5]; pH 4, 1 h): 23 mm
- Spreading Diameter ([5]; pH 4, 4 h): 23 mm
- Spreading Diameter ([5]; pH 4, 24 h): 44 mm
- Spreading Diameter ([5]; pH 4, 48 h): 38 mm
- Spreading Diameter ([5]; pH 4, 72 h): 28 mm
- Spreading Diameter ([5]; pH 5, 0 h): 26 mm
- Spreading Diameter ([5]; pH 5, 1 mo): 42 mm
- Spreading Diameter ([5]; pH 5, 1 wk): 29 mm
- Spreading Diameter ([5]; pH 5, 2 wk): 33 mm
- Spreading Diameter ([5]; pH 5, 3 wk): 33 mm
- Spreading Diameter ([5]; pH 5, 1 h): 23 mm
- Spreading Diameter ([5]; pH 5, 24 h): 24 mm
- Spreading Diameter ([5]; pH 5, 48 h): 32 mm
- Spreading Diameter ([5]; pH 5, 72 h): 35 mm
- Surface Tension [1]: 24.5 mN/m
- Spread Diameter ([2]; 0.1%): 20 mm
- Spread Diameter ([2]; 0.2%): 21 mm
- Spread Diameter ([2]; 0.4%): 32 mm
Structure (SMILES): C[Si](C)(C)CC[Si](C)(C)O[Si](C)(C)CCCOCCOCCOCCOCCOCCOCCOCCOCCOCCOCCOCCO [Product 11]
